Assay results: patent US20260365647A1, “AKT1 MODULATORS” (Alterome Therapeutics, Inc., priority 2022, published 2026)

Target: T1, AKT1-E17K (Homo sapiens, UniProt P31749, E17K)
T1 construct: host or cells: HEK-293 (ATCC CRL-1573)
Test: NanoBRET Target Engagement (TE) Assay
Format: cell-based
In short: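 Live cells transiently expressing NanoLuc-AKT1 E17K fusion, incubated 2 h with tracer and compound before substrate plus extracellular NanoLuc inhibitor were added. BRET read at 450/600 nm; EC50 from variable-slope sigmoidal fit of tracer displacement.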

T1 sequence (P31749 whole entry E17K): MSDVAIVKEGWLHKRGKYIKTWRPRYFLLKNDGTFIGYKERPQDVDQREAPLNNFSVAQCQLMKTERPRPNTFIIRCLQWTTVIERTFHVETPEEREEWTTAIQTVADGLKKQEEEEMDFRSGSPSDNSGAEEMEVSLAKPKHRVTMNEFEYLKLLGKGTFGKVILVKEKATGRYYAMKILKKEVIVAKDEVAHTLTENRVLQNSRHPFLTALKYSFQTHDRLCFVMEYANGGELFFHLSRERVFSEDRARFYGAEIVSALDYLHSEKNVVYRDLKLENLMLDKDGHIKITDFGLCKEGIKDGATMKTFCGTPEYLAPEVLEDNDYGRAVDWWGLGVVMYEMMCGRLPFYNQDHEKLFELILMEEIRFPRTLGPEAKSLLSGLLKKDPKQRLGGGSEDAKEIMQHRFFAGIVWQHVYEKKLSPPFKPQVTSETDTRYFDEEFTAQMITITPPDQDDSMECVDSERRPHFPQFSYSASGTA

Q: How did the IC50 turn out when Nc1ncccc1-c1nc2ccc(-c3ccccc3)nc2n1-c1ccc(CN2CCC(Nc3ccc(C=O)c(O)c3)CC2)cc1 [Example 47, 4-((1-(4-(2-(2-Aminopyridin-3-yl)-5-phenyl-3H-imidazo[4,5-b]pyridin-3-yl)benzyl)piperidin-4-yl)amino)-2-hydroxybenzaldehyde] was run?
A: 0.06 to 0.6 µM

Q: Which IC50 does the source give for Nc1ncccc1-c1nc2ccc(-c3ccccc3)nc2n1-c1ccc(CN2CCC3(CCN(c4ccc(C=O)c(O)c4)C3)C2)cc1 (centres unmarked) [Example 82, 4-(7-(4-(2-(2-Aminopyridin-3-yl)-5-phenyl-3H-imidazo[4,5-b]pyridin-3-yl)benzyl)-2,7-diazaspiro[4.4]nonan-2-yl)-2-hydroxybenzaldehyde] here?
A: 0.06 to 0.6 µM

Q: With Nc1ncccc1-c1nc2ccc(-c3ccccc3)nc2n1-c1ccc(COc2ccc(C=O)c(O)c2)cc1 [Example 138, 4-((4-(2-(2-Aminopyridin-3-yl)-5-phenyl-3H-imidazo[4,5-b]pyridin-3-yl)benzyl)oxy)-2-hydroxybenzaldehyde] as the molecule, how does the IC50 read?
A: 0.06 to 0.6 µM

Q: Which IC50 does the source give for Nc1ncccc1-c1nc2ccc(-c3ccccc3)nc2n1-c1ccc(CN2CCC3(CC2)CCN(c2ccc(C=O)c(O)c2)CC3)cc1 [Example 78, 4-(9-(4-(2-(2-Aminopyridin-3-yl)-5-phenyl-3H-imidazo[4,5-b]pyridin-3-yl)benzyl)-3,9-diazaspiro[5.5]undecan-3-yl)-2-hydroxybenzaldehyde] here?
A: 0.06 to 0.6 µM

Q: Which IC50 does the source give for Nc1ncccc1-c1nc2ccc(-c3ccccc3)nc2n1-c1ccc(CN2CCC3(CCCN(C(=O)c4ccc(C=O)c(O)c4)C3)C2)cc1 (centres unmarked) [Example 87, 4-(2-(4-(2-(2-Aminopyridin-3-yl)-5-phenyl-3H-imidazo[4,5-b]pyridin-3-yl)benzyl)-2,7-diazaspiro[4.5]decane-7-carbonyl)-2-hydroxybenzaldehyde] here?
A: 0.06 to 0.6 µM

Q: Which IC50 does the source give for Nc1ncccc1-c1nc2ccc(-c3ccccc3)nc2n1-c1ccc(CN2C3CCC2CN(c2ccc(C=O)c(O)c2)C3)cc1 [Example 114, 4-(8-(4-(2-(2-Aminopyridin-3-yl)-5-phenyl-3H-imidazo[4,5-b]pyridin-3-yl)benzyl)-3,8-diazabicyclo[3.2.1]octan-3-yl)-2-hydroxybenzaldehyde] here?
A: 0.06 to 0.6 µM

Q: For Nc1ncccc1-c1nc2ccc(-c3ccccc3)nc2n1-c1ccc(CN2CCN(C(=O)c3ccc(C=O)c(O)c3)CC2)cc1 [Example 6, 4-(4-(4-(2-(2-Aminopyridin-3-yl)-5-phenyl-3H-imidazo[4,5-b]pyridin-3-yl)benzyl)piperazine-1-carbonyl)-2-hydroxybenzaldehyde], which IC50 is on record?
A: 0.06 to 0.6 µM

Q: How did the IC50 turn out when C[C@H]1CN(Cc2ccc(-n3c(-c4cccnc4N)nc4ccc(-c5ccccc5)nc43)cc2)CCN1C(=O)c1ccc(C=O)c(O)c1 [Example 106, (S)-4-(4-(4-(2-(2-Aminopyridin-3-yl)-5-phenyl-3H-imidazo[4,5-b]pyridin-3-yl)benzyl)-2-methylpiperazine-1-carbonyl)-2-hydroxybenzaldehyde] was run?
A: > 0.6 µM

Q: How did the IC50 turn out when Nc1ncccc1-c1nc2ccc(-c3ccccc3)nc2n1-c1ccc(CN2C[C@@H]3C[C@H]2CN3c2ccc(C=O)c(O)c2)cc1 [Example 123, 4-((1S,4S)-5-(4-(2-(2-Aminopyridin-3-yl)-5-phenyl-3H-imidazo[4,5-b]pyridin-3-yl)benzyl)-2,5-diazabicyclo[2.2.1]heptan-2-yl)-2-hydroxybenzaldehyde] was run?
A: 0.06 to 0.6 µM

Q: Nc1ncccc1-c1nc2ccc(-c3ccc(Cl)cc3)nc2n1-c1ccc(CN2CCN(C(=O)c3ccc(O)c(C=O)c3)CC2)cc1 [Example 147, 5-(4-(4-(2-(2-aminopyridin-3-yl)-5-(4-chlorophenyl)-3H-imidazo[4,5-b]pyridin-3-yl)benzyl)piperazine-1-carbonyl)-2-hydroxybenzaldehyde] was tested. Which IC50 did it give?
A: > 0.6 µM

Q: With Nc1ncccc1-c1nc2ccc(-c3ccccc3)nc2n1-c1ccc(CN2CCN(c3cc(O)c(C=O)cc3Br)CC2)cc1 [Example 27, 4-(4-(4-(2-(2-Aminopyridin-3-yl)-5-phenyl-3H-imidazo[4,5-b]pyridin-3-yl)benzyl)piperazin-1-yl)-5-bromo-2-hydroxybenzaldehyde] as the molecule, how does the IC50 read?
A: 0.06 to 0.6 µM
